Laboratory results from patent publication US20260207490A1, “Hydroxydiphenylethane compound ointment, use thereof, and method for preparing same” (Cutia Therapeutics (Wuxi) Co., Ltd., priority 2022, published 2026).

Experiments:
[1] = Saturated solubility in medium-chain triglycerides / isopropyl myristate / light liquid paraffin mixtures; assay type: physicochemical; settings: for Saturation solubility of 2-isopropyl-5-(2′-phenylethyl)-1,3-benzenediol: room temperature
Description: Experimental variables A, B, and C were set as the content of medium-chain triglycerides (%), isopropyl myristate (%), and light liquid paraffin (%), respectively (for the convenience of experimental design and operation, light liquid paraffin was used to represent all hydrocarbon compounds). According to the maximum safe dosage of excipients (FDA IID database), the variable range was set as follows: 0<A≤20, 0<B≤20. According to the preliminary experimental results (medium-chain triglycerides are more important for the dissolution of API and the stability of the system) and the requirements for the viscosity and skin feel of the ointment, the constraints were set as follows: A>B; A+B≤25%; A+B+C=100%.
According to the variable range and constraint conditions, a total of 20 experimental formulations were designed. After the components were mixed evenly in proportion, an excess of 2-isopropyl-5-(2′-phenylethyl)-1,3-benzenediol was added, stirred overnight at room temperature, centrifuged, the supernatant was filtered and diluted, and the saturated solubility of 2-isopropyl-5-(2′-phenylethyl)-1,3-benzenediol was tested.
The saturated solubility of 2-isopropyl-5-(2′-phenylethyl)-1,3-benzenediol in different proportions of medium-chain triglycerides, isopropyl myristate and light liquid paraffin solution was investigated to verify the accuracy of the prediction equation. The equation can accurately predict the solubility of API in different proportions of excipients. In practical applications, it is acceptable that the API content is within the range of no more than 1.2 times the saturated solubility, that is, 120%×(0.445829×A+0.032300×B−0.000599×C+0.008112×A×B−0.003841×A×C). Preferably, when the content of the active ingredient in the preparation is not higher than 0.445829×A+0.032300×B−0.000599×C+0.008112×A×B−0.003841×A×C, a better solution-type ointment can be prepared. It is further preferred that the content of the active ingredient in the preparation is not higher than 90% of the saturated solubility, that is, the content of the active ingredient in the preparation is not higher than 90%×(0.445829×A+0.032300×B−0.000599×C+0.008112×A×B−0.003841×A×C).

[2] = Saturated solubility in different excipients; assay type: physicochemical

Structure (SMILES): CC(C)c1c(O)cc(CCc2ccccc2)cc1O [2-isopropyl-5-(2′-phenylethyl)-1,3-benzenediol]
- Saturation solubility of 2-isopropyl-5-(2′-phenylethyl)-1,3-benzenediol ([1]; experimental formulation 1: MCT 5.97%, isopropyl myristate 5.97%, light liquid paraffin 88.06%): 1.09%
- Saturation solubility of 2-isopropyl-5-(2′-phenylethyl)-1,3-benzenediol ([1]; experimental formulation 2: MCT 6.63%, isopropyl myristate 6.63%, light liquid paraffin 86.74%): 1.22%
- Saturation solubility of 2-isopropyl-5-(2′-phenylethyl)-1,3-benzenediol ([1]; experimental formulation 3: MCT 20.00%, isopropyl myristate 0.00%, light liquid paraffin 80.00%): 2.47%
- Saturation solubility of 2-isopropyl-5-(2′-phenylethyl)-1,3-benzenediol ([1]; experimental formulation 4: MCT 2.00%, isopropyl myristate 0.00%, light liquid paraffin 98.00%): 0.11%
- Saturation solubility of 2-isopropyl-5-(2′-phenylethyl)-1,3-benzenediol ([1]; experimental formulation 5: MCT 12.50%, isopropyl myristate 12.50%, light liquid paraffin 75.00%): 3.78%
- Saturation solubility of 2-isopropyl-5-(2′-phenylethyl)-1,3-benzenediol ([1]; experimental formulation 6: MCT 16.15%, isopropyl myristate 0.00%, light liquid paraffin 83.85%): 2.07%
- Saturation solubility of 2-isopropyl-5-(2′-phenylethyl)-1,3-benzenediol ([1]; experimental formulation 7: MCT 20.00%, isopropyl myristate 0.00%, light liquid paraffin 80.00%): 2.91%
- Saturation solubility of 2-isopropyl-5-(2′-phenylethyl)-1,3-benzenediol ([1]; experimental formulation 8: MCT 18.79%, isopropyl myristate 6.21%, light liquid paraffin 75.00%): 4.13%
- Saturation solubility of 2-isopropyl-5-(2′-phenylethyl)-1,3-benzenediol ([1]; experimental formulation 9: MCT 11.30%, isopropyl myristate 3.90%, light liquid paraffin 84.80%): 1.73%
- Saturation solubility of 2-isopropyl-5-(2′-phenylethyl)-1,3-benzenediol ([1]; experimental formulation 10: MCT 11.62%, isopropyl myristate 2.02%, light liquid paraffin 86.36%): 1.55%
- Saturation solubility of 2-isopropyl-5-(2′-phenylethyl)-1,3-benzenediol ([1]; experimental formulation 11: MCT 10.84%, isopropyl myristate 0.00%, light liquid paraffin 89.16%): 1.05%
- Saturation solubility of 2-isopropyl-5-(2′-phenylethyl)-1,3-benzenediol ([1]; experimental formulation 12: MCT 12.50%, isopropyl myristate 12.50%, light liquid paraffin 75.00%): 3.42%
- Saturation solubility of 2-isopropyl-5-(2′-phenylethyl)-1,3-benzenediol ([1]; experimental formulation 13: MCT 9.35%, isopropyl myristate 8.77%, light liquid paraffin 81.88%): 2.20%
- Saturation solubility of 2-isopropyl-5-(2′-phenylethyl)-1,3-benzenediol ([1]; experimental formulation 14: MCT 17.87%, isopropyl myristate 7.13%, light liquid paraffin 75.00%): 4.11%
- Saturation solubility of 2-isopropyl-5-(2′-phenylethyl)-1,3-benzenediol ([1]; experimental formulation 15: MCT 10.84%, isopropyl myristate 0.00%, light liquid paraffin 89.16%): 1.06%
- Saturation solubility of 2-isopropyl-5-(2′-phenylethyl)-1,3-benzenediol ([1]; experimental formulation 16: MCT 15.17%, isopropyl myristate 4.03%, light liquid paraffin 80.80%): 2.65%
- Saturation solubility of 2-isopropyl-5-(2′-phenylethyl)-1,3-benzenediol ([1]; experimental formulation 17: MCT 13.29%, isopropyl myristate 8.31%, light liquid paraffin 78.40%): 3.98%
- Saturation solubility of 2-isopropyl-5-(2′-phenylethyl)-1,3-benzenediol ([1]; experimental formulation 18: MCT 5.84%, isopropyl myristate 1.16%, light liquid paraffin 93.00%): 0.48%
- Saturation solubility of 2-isopropyl-5-(2′-phenylethyl)-1,3-benzenediol ([1]; experimental formulation 19: MCT 2.00%, isopropyl myristate 0.00%, light liquid paraffin 98.00%): 0.09%
- Saturation solubility of 2-isopropyl-5-(2′-phenylethyl)-1,3-benzenediol ([1]; experimental formulation 20: MCT 18.79%, isopropyl myristate 6.21%, light liquid paraffin 75.00%): 3.95%
- Measured saturated solubility ([1]; validation group 1: MCT 20%, isopropyl myristate 0.85%, light liquid paraffin 79.15%): 3.32%
- Measured saturated solubility ([1]; validation group 2: MCT 20%, isopropyl myristate 3.4%, light liquid paraffin 76.6%): 3.85%
- Measured saturated solubility ([1]; validation group 3: MCT 13.75%, isopropyl myristate 9.23%, light liquid paraffin 77.02%): 3.52%
- Measured saturated solubility ([1]; validation group 4: MCT 11.2%, isopropyl myristate 7.55%, light liquid paraffin 81.25%): 2.56%
- Measured saturated solubility ([1]; validation group 5: MCT 8.72%, isopropyl myristate 5.04%, light liquid paraffin 86.24%): 1.58%
- Measured saturated solubility ([1]; validation group 6: MCT 3%, isopropyl myristate 3%, light liquid paraffin 94%): 0.401%
- Measured saturated solubility ([1]; validation group 7: MCT 2%, isopropyl myristate 2%, light liquid paraffin 96%): 0.203%
- saturated solubility ([2]; in 10% glycerol): 0.00007%
- saturated solubility ([2]; in 20% ethanol): 0.02%
- saturated solubility ([2]; in Span 80): 3%
- saturated solubility ([2]; in diethylene glycol monoethyl ether): 52%
- saturated solubility ([2]; in isopropyl myristate): 27%
- saturated solubility ([2]; in isopropyl palmitate): 23%
- saturated solubility ([2]; in light liquid paraffin): 0.01%
- saturated solubility ([2]; in medium-chain triglycerides): 27%
- saturated solubility ([2]; in polyethylene glycol 400): 30%
- saturated solubility ([2]; in polysorbate 80): 17%
- saturated solubility ([2]; in propylene glycol): 30%
- saturated solubility ([2]; in propylene glycol monolaurate): 30%
- saturated solubility ([2]; in water): 0.0008%
